The values below are quoted from earlier work in patent publication US20230399335A1, “PROCESS FOR THE PREPARATION OF ASENAPINE IN THE FORM OF ITS FREE BASE” (LTS LOHMANN Therapie-Systeme AG, priority 2020, published 2023).

The conditions of this data set: when taken orally.

Broadly, the bioavailability is dose-corrected exposure relative to a reference, in per cent. Consider `CN1C[C@H]2c3ccccc3Oc3ccc(Cl)cc3[C@@H]2C1` (relative stereo) [asenapine, (3aRS,12bRS)-rel-5-chloro-2,3,3a,12b-tetrahydro-2-methyl-1H-dibenz[2,3:6,7]oxepin [4,5-c]pyrrole], for which the bioavailability is reported as less than 2%.
